Measurements: US5112866A, “Ethanesulfonamide derivatives” (Ortho Pharmaceutical Corporation, priority 1989, dated 1992)
Like-named read-outs stand apart in the source and are kept apart here.

Legend:
[1] = tested on: Gastric Secretion; test: Inhibition of Gastric Secretion in Rat (pylorus ligated); assay type: in vivo, rat (male Charles River); conditions: intraduodenal, four hours after pylorus ligation
Experimental: Inhibition of Gastric Secretion in Rat
Male Charles River rats weighing 150-300 grams were deprived of food but not water for 18-24 hours prior to use. Water was withheld during the experiment. The rats were weighed, anesthetized with ether and the pylorus ligated according to the method of Shay, H. et al., Gastroenterol. 26, 906 (1954). Test compounds were suspended in a 0.5% aqueous solution of methylcellulose (15 cps) and administered intraduodenally (i.d.) at the time of ligation. The rats were housed two per cage and sacrificed with CO2 four hours after ligation. The stomachs were removed and contents emptied into a graduated centrifuge tube. The tubes were centrifuged, the volume of gastric juice recorded, and any samples obviously contaminated by feces, food or blood eliminated. A 1 ml aliquot of gastric juice was titrated with 0.1 N NaOH to a pH of 7.0-7.4.
The volume of gastric juice secreted, the acid concentration, and the product of the volume times the concentration, i.e., the total amount of acid secreted, were statistically compared by a student's t-test using the pooled error variance.

[2] = tested on: Rabbit Isolated Parietal Cells; test: Inhibition of 14C-aminopyrine accumulation in stimulated rabbit isolated parietal cells; assay type: cell-based; conditions: Oryctolagus cuniculus, 37° C.
Description: Pharmacology of the Ethanesulfonamide Compounds - Rabbit Isolated Parietal Cells
Parietal cells were isolated from the fundic mucosa of rabbit stomachs by a four-stage collagenase digestion Process. The supernatant fraction from the last two stages of this Process contained the individual parietal cells. This cell suspension was centrifuged and reconstituted in a modified Hank's buffer to contain 2-3×10^6 cells/ml. […] The accumulation is stimulated by histamine and is blocked by H2 antagonists. Accumulation of ^14 C-AP is also stimulated by dibutyryl cAMP (dbcAMP). The cells were incubated with 0.5×10^6 cpm ^14 C-AP, with various concentrations of histamine or dbcAMP, […] isobutylmethylxanthine, and test compound added in a 20 μl volume of buffer or dimethylsulfoxide. The flasks were incubated in a shaking water bath at 37° C. Two 0.5 ml aliquots were then taken from each flask and cell pellets were collected by centrifugation. The pellets were solubilized with Protosol (NEN) and radioactivity determined by liquid scintillation spectrometry.
The concentration of compound required to inhibit ^14 C-AP accumulation in the stimulated parietal cell by 50% (IC50) was determined.

[3] = tested on: Mouse osteoblastic-line cells (MC3T3-El); test: Mouse Osteoblast-line Cell Proliferation (3H-thymidine); assay type: cell-based; conditions: 0.1% FBS
Experimental: Pharmacology of the Ethenesulfonyl Fluoride Compounds--In Vitro Mouse Osteoblast-line Cell Proliferation
Reagents: Mouse osteoblastic-line cells (MC3T3-El) were plated in Dulbeccos Modified Eagles Medium (DMEM) with 25 mM Hepes Buffer, L-Glutamine, D-Glucose(4.5 gm/1) supplemented with 10% fetal bovine sera, Penicillin (100 units/ml) and Streptomycin ([…]) (Penicillin-Streptomycin liquid) and sodium pyruvate (10 μM final concentration). ^3 H-Thymidine (6.7 Ci/mmole) was diluted in DMEM media without FBS and filter sterilized. An aliquot of this solution was delivered to each culture well to a final concentration of ^3 H-thymidine of 0.4 μCi per well (2 μCi/ml).
Test Preparations: Solutions of the test compound were made on the day before incubation. These compounds were solubilized in either ethanol or DMSO at a concentration of 100 mM containing 0.1% FBS. The solutions were filter sterilized and then sterile serial dilutions were performed with DMEM media containing 0.1% FBS.
Osteoblast line cells were plated into 96 well culture plates, 1600 cells in 100 μL per well in DMEM with 25 mM Hepes Buffer, L-Glutamine, D-Glucose (4.5 gm/L) supplemented with 10% fetal bovine sera, Penicillin (100 units/mL) and Streptomycin (100 μg/mL) and sodium Pyruvate (10 μM final concentration). The media was replaced with DMEM containing no FBS and the cells were then incubated for an additional 24 hours. The following day, test compounds were added and screened at concentrations ranging from 10^-10 to 10^-5 M in the Presence of 0.1% FBS. The cells were then incubated an additional 20 hours. At this time 0.4 μ/Ci of 3H-thymidine was added to each culture well and the cells were incubated an additional 4 hours. The cells were then harvested with a Skatron Cell Harvester onto a glass fiber filter and washed with water, %5 trichloroacetic acid (TCA) and then 95% ethanol. The filters were then processed and counted on the LKB beta plate scintillation counter.

[4] = tested on: tibia; test: In vivo [3H]Tetracycline incorporation into tibia, bone mitogen activity in the aged Fisher 344 rat; parameters: species or system rat (female Fisher 344); conditions: daily intraperitoneal, sesame oil
Experimental: (§1) Pharmacology of the Ethenesulfonyl Fluoride Compounds--[…] Bone Mitogen Activity in the Aged Fisher 344 Rat
(§2) Animals: Female Fisher 344 rats, 12 months of age, were housed in climate controlled light/dark (12-hour cycle) rooms and given food and water ad libitum.
(§3) Test Compounds: The test compounds were suspended in sesame oil and administered daily via intraperitoneal injections; vehicle treated rats were administered sesame oil along (2 mL/kg).
In vivo [^3 H]Tetracycline Incorporation: Tritiated tetracycline, which is rapidly concentrated in the growing skeleton, can be used as a relative measure of bone forming surface in vivo. [^3 H]Tetracycline was injected intraperitoneally at a dose of 0.125 μCi/g body weight in a 0.9% NaCl solution. Two hours after injection, rats were bled by cardiac puncture and then killed by CO2 asphyxiation and the tibia removed and cleaned of tissue and marrow. The tibia are homogenized and digested in 2 N NaOH for 2 hours. The precipitate is washed and then hydrolyzed in 6N Hcl. An aliquot of the resulting supernatant is analyzed for tritiutum.

[5] = tested on: bone protein; test: In vivo [3H]Proline incorporation into bone protein, bone mitogen activity in the aged Fisher 344 rat; parameters: species or system rat (female Fisher 344); conditions: daily intraperitoneal, sesame oil
Experimental: as §1, §2, §3
In vivo [^3 H]Proline Incorporation: [^3 H]Proline incorporation into bone protein was carried out as previously described (Reddi and Huggins, 1975). [^3 H]Proline was injected intraperitoneally at a dose of 0.5 μCi/g body weight in 0.9% NaCl. Four hours after the injection, rats were bled by cardiac puncture and then killed by CO2 asphyxiation and the tibia removed and the radioactivity quantified as in Example 28.

[6] = cited from earlier work
[7] = tested on: osteoblasts; conditions: Farley, et al., Science, 1983; cited from earlier work
[8] = 14C-AP accumulation stimulated by dibutyryl cAMP, read-out: IC50 (dbcAMP)
[9] = 14C-AP accumulation stimulated by histamine, read-out: IC50 (H)

IC50 [2, 8] | IC50 [2, 9] | SMILES | % Reduction of Total Acid Output ([1]; Dose 20 MPK) | Mouse Osteoblast-line Cell Proliferation [Expressed as a Percent of Control] ([3]; 0.001 μM) | Mouse Osteoblast-line Cell Proliferation [Expressed as a Percent of Control] ([3]; 0.01 μM) | Mouse Osteoblast-line Cell Proliferation [Expressed as a Percent of Control] ([3]; 0.1 μM) | Mouse Osteoblast-line Cell Proliferation [Expressed as a Percent of Control] ([3]; 1.0 μM) | Mouse Osteoblast-line Cell Proliferation [Expressed as a Percent of Control] ([3]; 10 μM) | Percent Incorporation of [3H]Tetracycline of Control ([4]; 50 mg/Kg) | also measured
310 nM | 160 nM | O=S(=O)(CCNc1ccc(Cl)c(C(F)(F)F)c1)NCCCOc1cccc(CN2CCCCC2)c1 [Example 9, 2-[(4-Chloro-3-trifluoromethylphenyl)amino]-N-[3-[3-(piperidinomethyl)phenoxy]propyl]ethanesulfonamide] | – | – | – | – | – | – | – | % Reduction of Total Acid Output ([1]; Dose 40 MPK): 24.7%
230 nM | 280 nM | CCCCc1ccc(NCCS(=O)(=O)NCCCOc2cccc(CN3CCCCC3)c2)cc1 [Example 10, 2-[(4-Butylphenyl)amino]-N-[3-[3-(piperidinomethyl)phenoxy]propyl]ethanesulfonamide] | 23.3% | – | – | – | – | – | – | –
460 nM | 58 nM | CC1CCN(Cc2cccc(OCCCNS(=O)(=O)CCNc3ccc(Cl)c(Cl)c3)c2)CC1 [Example 11, 2-[(3,4-Dichlorophenyl)amino]-N-[3-[3-[(4-methylpiperidin-1-yl)methyl]-phenoxy]propyl]ethanesulfonamide] | 29.0% | – | – | – | – | – | – | –
– | – | COc1cc(NCCS(=O)(=O)F)c(C(C)=O)cc1OC [Example 14] | – | 120.9% of Control | 159.5% of Control | 125.3% of Control | 170.3% of Control | 180.3% of Control | 119.6 Percent Incorporation of Contr | Percent Incorporation of [3H]Proline of Control ([5]; 15 mg/Kg): 100.7 Percent Incorporation of Contr; Percent Incorporation of [3H]Proline of Control ([5]; 50 mg/Kg): 118.1 Percent Incorporation of Contr; Percent Incorporation of [3H]Proline of Control ([5]; 150 mg/Kg): 121.0 Percent Incorporation of Contr
– | – | O=S(=O)(F)CCNc1ccc(Cl)cc1 [Example 15] | – | 129.6% of Control | 119.9% of Control | 123.5% of Control | 93.4% of Control | 106.7% of Control | 125.1 Percent Incorporation of Contr | Percent Incorporation of [3H]Tetracycline of Control ([4]; 15 mg/Kg): 118.0 Percent Incorporation of Contr; Percent Incorporation of [3H]Tetracycline of Control ([4]; 25 mg/Kg): 114.0 Percent Incorporation of Contr
– | – | [F-].[Na+] [sodium fluoride, Sodium fluoride] | – | – | – | – | – | – | – | rate of bone fracture ([6]; fluoride treatment, Riggs, et al., N. Engl. J. Med., 1982): significantly decreased; adverse reactions ([6]; in vivo): gastrointestinal side effects (nausea, vomiting, diarrhea and bleeding) and rheumatic complications (synovitis and plantar fascial syndrome); bone formation and bone mass ([6]; osteoporosis): increases bone formation and leads to an increase in bone mass in osteoporosis; proliferation and activity of bone forming cells, osteoblasts [7]: causes proliferation and increases the activity of bone forming cells, osteoblasts
